Among the data in PMC6240092, “NUAK2 is a critical YAP target in liver cancer” (Nature Communications, 2018) are IC50 values, retold here.

The experiment has as its target T1, NUAK2 (Homo sapiens, UniProt Q9H093).
T1 construct: N-terminal GST-tagged NUAK2, expressed in HEK-293 cells and purified by glutathione-sepharose
T1 sequence (Q9H093 1-628): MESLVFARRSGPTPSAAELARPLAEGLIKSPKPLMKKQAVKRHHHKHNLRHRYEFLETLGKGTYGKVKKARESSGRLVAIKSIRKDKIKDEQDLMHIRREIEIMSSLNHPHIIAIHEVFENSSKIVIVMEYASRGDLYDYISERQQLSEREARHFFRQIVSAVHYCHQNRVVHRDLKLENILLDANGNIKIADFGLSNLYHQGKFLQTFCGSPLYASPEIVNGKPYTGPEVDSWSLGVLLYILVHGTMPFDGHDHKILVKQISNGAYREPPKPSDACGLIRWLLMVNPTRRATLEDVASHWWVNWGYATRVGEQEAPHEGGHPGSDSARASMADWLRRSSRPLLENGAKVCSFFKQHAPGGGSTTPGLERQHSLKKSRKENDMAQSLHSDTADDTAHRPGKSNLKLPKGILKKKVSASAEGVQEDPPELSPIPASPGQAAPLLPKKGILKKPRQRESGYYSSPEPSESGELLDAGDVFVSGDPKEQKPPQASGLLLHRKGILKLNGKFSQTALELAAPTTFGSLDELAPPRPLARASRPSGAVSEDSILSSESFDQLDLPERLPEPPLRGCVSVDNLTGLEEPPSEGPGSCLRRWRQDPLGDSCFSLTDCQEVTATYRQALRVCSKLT
As to the kind of experiment: radiometric peptide kinase assay with [γ-32P]ATP ([…]) and Sakamototide ([…]). Format: biochemical.

pIC50: −log10 of the molar value.

One may read the pIC50 as the negative decadic logarithm of the IC50, by convention in mol/L. In the case of `CCC(=O)Nc1cccc(Oc2nc(Nc3ccc(N4CCN(C)CC4)cc3OC)ncc2I)c1` [HTH-02-006], the pIC50 is 6.90.
